Source: US20250257364A1, “RNA-GUIDED DNA TRANSPOSITION” (priority 2024, published 2025)

Experiments:
[1] = system: E. coli murA CRISPRtOE strains vs lacZ controls; assay: CRISPRtOE pooled library competitive growth assay with fosfomycin; type: cell-based, E. coli K-12; settings: fosfomycin 0.4 μg/ml, ~10-15 doublings
Experimental: (§1) CRISPRtOE library growth experiments. Competition experiment growth. The E. coli CRISPRtOE murA and folA libraries were mixed in equal volume with the LP-lacZ library: 50 μl frozen stock (OD600=10) of each library (murA+LP-lacZ and folA+LP-lacZ) into 100 ml LB (starting OD600=0.01) in a 500 ml flask and incubated shaking at 37° C. until OD600=0.2 (˜2.5 h) (timepoint=T0) to revive the cells. […] (T1). These cultures were serially diluted back to OD600=0.01 into fresh tubes containing the same media and incubated again with shaking for 18 h at 37° C. (T2) for a total of ˜10-15 doublings. Cells were pelleted from 15 ml of culture in duplicate at each time point T0 and 1 ml of culture at timepoints T1 and T2 and stored at −20° C.
(§2) To test for overexpression phenotypes, the folA or murA library was mixed 50:50 with the lacZ control library and cells were grown in the presence/absence of TMP or FOS, respectively.

[2] = system: E. coli folA CRISPRtOE isolates vs parent strains; settings: TMP 0.04-20 μg/ml, MHB, 20 h
Experimental: MIC assays. The minimal inhibitory concentration (MIC) of E. coli folA and murA CRISPRtOE isolates was determined by either growth in a microtiter plate or by disc diffusion assays, respectively. For the broth microdilution assay, CRISPRtOE isolates and WT controls were grown to saturation from an isolated colony and serially diluted to OD600=0.003) and the CRISPRtOE library was diluted from a glycerol stock to the same density. […] E. coli folA CRISPRtOE isolates, the folA CRISPRtOE library, a lacZ CRISPRtOE control, and WT cultures and the media containing antibiotic were mixed in equal proportions and incubated 20 h shaking at 37° C. prior to cell density (OD600) determination in a microplate reader. For the MIC strip assays, E. coli folA or murA CRISPRtOE isolates, a lacZ CRISPRtOE control, and WT cultures were diluted to OD600=0.3 and 300 μl was spread on a 100 mm MH agar plate and dried in a laminar flow cabinet. When dry, MIC strips (Liofilchem, Italy; 920371 (TMP 0.002-32 mg/L) and 920791(FOS 0.064-1024 mg/L)) were applied to the plate and 10 μl serially diluted antibiotics were applied to the discs. Plates were incubated at 37° C. for 18 h. Broth microdilution assays were repeated 3 times and MIC test strip assays twice.

[3] = system: E. coli folA CRISPRtOE strains vs lacZ controls
Experimental: as §1, §2

[4] = system: E. coli whole genome CRISPRtOE library (promoter H)
Experimental: Whole genome experiment growth. The E. coli CRISPRtOE whole genome libraries with no promoter (sJMP10704) or promoter H (sJMP10705) were revived by dilution of 100 μl frozen stock (OD600=15) into 100 ml LB (starting OD600=0.015) and incubation in 500 ml flasks shaking at 37° C. until OD600=0.2 (˜2.5 h) (timepoint=TO). […] (T1). These cultures were serially diluted back to OD600=0.01 into fresh tubes containing the same media and incubated again with shaking for 18 h at 37° C. (T2) for a total of ˜10-15 doublings. Cells were pelleted from 15 ml of culture in duplicate at time point TO and 1 ml of culture at timepoints T1 and T2 and stored at −20° C.
A custom Python script (counting_spacers.py) was used to determine the number of times each spacer appeared in the filtered alignment file. […] Pairwise comparison of spacer counts in DMSO and TMP treatment samples was performed using edgeR^70 and a custom Rscript (comparison_of_spacer_counts_edgeR.R). The results were plotted using a custom Rscripts (plotting_scatter_plot.R, barplot_with_points.R, scatter_plot_commands.R). […]
To test the ability of CRISPRtOE to identify antibiotic-relevant gene phenotypes at the genome-scale, the libraries were grown in the presence or absence of a sub-lethal concentration of TMP and relative strain abundance was measured.

lacZ = assay: CRISPRt disruption of lacZ, blue-white screening of transconjugants; type: cell-based, E. coli K-12; settings: lacZ targeted
Experimental: Transfer of the CRISPRt/CRISPRtOE system to the bacterial chromosome. CRISPRt and CRISPRtOE strains were constructed by triparental mating of two E. coli donor strains-one with the pCRISPRt-H plasmid encoding Cas678-TniQ-TnsABC and another with the pCRISPRt-T or pCtOE plasmid containing the transposon with the guide RNA and antibiotic resistance- and a recipient strain (Table 1). All conjugations and selection post-conjugation were carried out at 30° C. regardless of the normal incubation temperature for the organism. Isolated donor and recipient strains were struck out on plates with the appropriate media and antibiotic (if relevant) concentrations. Colonies were resuspended from plates into the growth medium used for the recipient to a density of OD600=9. […]
For lacZ targeted CRISPRt, the color of 80 individual colonies was determined by patching on LB agar plates containing X-gal (20 μg/ml). […]
To test the precision of CRISPRt, both endogenous (lacZ) and heterologous (gfp) reporter genes were targeted for disruption in E. coli K-12 (data not shown). […] Next, targeting on the genome scale was determined by sequencing genomic DNA at the Tn6677 transposon junction (Tn-seq) using Illumina®-based Next Generation Sequencing (NGS). […]

E. coli genome = assay: Tn-seq of CRISPRt transposon insertion sites (specificity, orientation); type: cell-based, E. coli K-12; settings: insertions ~49 bp downstream of protospacer
Text: FIGS. 1a-e illustrate a mobilizable, selectable, dual-plasmid system for CRISPR-guided transposition. 1a. Schematic of a targeted transposition gene knockout (CRISPRt) and gene overexpression (CRISPRtOE) system optimized for functional genomics. 1b. Schematic of mechanism of Vibrio cholera Type I-F CRISPR-associated transposon (Vc CAST) system. 1c. Schematic of strain construction using the CRISPRt targeted transposition system. Plasmids have pir-dependent origins of replication preventing replication in the bacterial recipient. […] Inside the recipient cell, the transposon (flanked in yellow) is inserted onto the chromosome at a site determined by the sequence of the guide RNA. […] Specificity of CRISPRt disruption of gfp and lacZ in E. coli measured by Tnseq. Mapping of location of transposon insertion sites to the E. coli genome after CRISPRt targeted transposition with gfp1 guide (226,671 reads) or LZ1 guide (216,801 reads). […]
Tnseq analysis of CRISPRt/CRISPRtOE constructs. […] PCR products were spin-purified (eluted in 15 μl) and quantified fluorometrically. […] Briefly, PCR products were amplified with nested primers containing i5 and i7 indexes and Illumina® TruSeq™ adapters followed by bead cleanup, quantification, pooling and running on a NovaSeq X Plus (150 bp paired end reads) or MiSeq (250 bp paired end reads). […]

Compound: C[C@@H]1O[C@@H]1P(=O)(O)O [FOS, fosfomycin]
- increase in abundance of murA OE strains relative to lacZ controls [1]: 52 fold

Compound: COc1cc(Cc2cnc(N)nc2N)cc(OC)c1OC [TMP, trimethoprim]
- shift in MIC between parent strains and folA CRISPRtOE isolates [2]: 15 to 30 fold
- increase in abundance of folA OE strains relative to lacZ controls [3]: 22 fold
- enrichment of folA-associated spacers [4]: > 1000 fold

Compound: lacZ: gRNA spacer LZ1 (Petassi, PMID: 33271061), SEQ ID NO: 16, targeting lacZ (guide CAACTTAATCGCCTTGCAGCACATCCCCCTTT; chemistry not given here)
- transconjugants showing the expected disruption phenotype (lacZ): 100%
- insertions in R-L orientation (E. coli genome): 74.1%
